Measurements as given in patent publication US20050131077A1, “Preventing or reducing the adhesion of microorganisms with phytanetriol” (priority 2003, published 2005).

Tested on: Staphylococcus aureus
Assay: Microbial antiadhesion test on reconstructed epidermis
Format: cell-based
Procedure: Before bacterial adhesion, the reconstructed epidermis is placed in contact for 2 hours with the composition of Example 1 at 37° C. 1 ml of bacterial suspension of Staphylococcus aureus at a concentration of 10^7 microorganisms/ml in Tryptone salt is then added thereto. After incubation for 24 hours at 37° C., the bacterial suspension is emptied out and five rinsings are performed with 1 ml of sterile distilled water. The reconstructed epidermis detached from its support is then ground using a processor in 18 ml of Tryptone salt. […] The adherent and viable cells are then counted. […]
A mixture of bacteria/test product, in the same ratio as in the antiadhesion test, is brought into contact for 24 hours at 37° C. The microorganisms are counted by tenfold dilution in Tryptone salt and inoculation, using a scraper, of 100 μl on Trypticase soybean agar. The colonies are counted after incubation for 24 hours at 37° C.
The quantitative results correspond to a reduction in the decimal logarithm of the mean number of viable Staphylococcus aureus adherent on the reconstructed epidermis after treatment with the test composition or test molecules, relative to the decimal logarithm of the mean number of viable Staphylococcus aureus adherent on the reconstructed epidermis after treating with water under the same conditions. […]

Structure (SMILES): CC(C)CCCC(C)CCCC(C)CCCC(C)(O)C(O)CO (centres unmarked) [Pure phytanetriol, 3,7,11,15-tetramethyl-1,2,3-hexadecanetriol]
- Activity Antiadhesion, Quantitative results: reduction in the decimal logarithm of the mean number of viable Staphylococcus aureus adherent on the reconstructed epidermis relative to water (reconstructed epidermis pretreated 2 hours at 37° C., S. aureus 10^7 microorganisms/ml, incubation 24 hours at 37° C., relative to treatment with water, significant if difference greater than 0.5 log): −1.9 log
- Activity Antiadhesion, Qualitative results (term as a function of Log reduction of adhesion after 24 hours relative to the same test using water): Good (between 1.5 and 2 log reduction relative to water)
